Values joined by “and” are separate entries in the source; they are usually repeats but may differ in a detail not shown here. Identical values can stand only once.
Test system: NCI/ADR-RES complex spheroid viability
Experiment: Anticancer human tumor NCI/ADR-RES cell line growth inhibition;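 also: spheroids exposed to compounds for 7 days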;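 as to viability, T/C: 100% = DMSO vehicle treated spheroids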
Conditions: for viability, T/C: stronger effect = lower value; active = viability on the fitted dose curve at most 10% of control; inactive = the rest
Outline: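 Multicellular complex spheroids of tumor cells with human endothelial cells (HUVEC) and mesenchymal stem cells; the LSD1 inhibitor iadademstat was combined with standard-of-care or investigational agents. Top concentration at or near clinical Cmax, half-log dilutions; final DMSO ≤0.25%.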

[1] = curve of first compound, second compound 0.1 µM
[2] = curve of first compound, second compound 0.316 µM
[3] = curve of first compound, second compound 1 µM
[4] = curve of first compound, second compound 3.16 µM
[5] = curve of first compound, second compound 10 µM
[6] = second compound 0.1 µM, first compound 0.00949 µM
[7] = second compound 0.1 µM, first compound 0.03 µM
[8] = second compound 0.1 µM, first compound 0.0949 µM
[9] = second compound 0.1 µM, first compound 0.3 µM
[10] = second compound 0.1 µM, first compound 0.949 µM
[11] = second compound 0.1 µM, first compound 3 µM
[12] = second compound 0.316 µM, first compound 0.00949 µM
[13] = second compound 0.316 µM, first compound 0.03 µM
[14] = second compound 0.316 µM, first compound 0.0949 µM
[15] = second compound 0.316 µM, first compound 0.3 µM
[16] = second compound 0.316 µM, first compound 0.949 µM
[17] = second compound 0.316 µM, first compound 3 µM
[18] = second compound 1 µM, first compound 0.00949 µM
[19] = second compound 1 µM, first compound 0.03 µM
[20] = second compound 1 µM, first compound 0.0949 µM
[21] = second compound 1 µM, first compound 0.3 µM
[22] = second compound 1 µM, first compound 0.949 µM
[23] = second compound 1 µM, first compound 3 µM
[24] = second compound 3.16 µM, first compound 0.00949 µM
[25] = second compound 3.16 µM, first compound 0.03 µM
[26] = second compound 3.16 µM, first compound 0.0949 µM
[27] = second compound 3.16 µM, first compound 0.3 µM
[28] = second compound 3.16 µM, first compound 0.949 µM
[29] = second compound 3.16 µM, first compound 3 µM
[30] = second compound 10 µM, first compound 0.00949 µM
[31] = second compound 10 µM, first compound 0.03 µM
[32] = second compound 10 µM, first compound 0.0949 µM
[33] = second compound 10 µM, first compound 0.3 µM
[34] = second compound 10 µM, first compound 0.949 µM
[35] = second compound 10 µM, first compound 3 µM

CC(C)CC(NC(=O)CNC(=O)c1cc(Cl)ccc1Cl)B1OC(=O)CC(CC(=O)O)(C(=O)O)O1 (configuration not stated) + NC1CCC(NC2CC2c2ccccc2)CC1
20.7 nM: IC50 [4]
14.2 nM: IC50 [5]
27.4 nM: IC50 [3]
active: viability, T/C (second compound 0.1 µM, first compound 0.1 µM) 8.2% | viability, T/C (second compound 0.316 µM, first compound 0.1 µM) 4.8% | viability, T/C (second compound 1 µM, first compound 0.1 µM) 2.51% | viability, T/C (second compound 3.16 µM, first compound 0.1 µM) 3.89% | viability, T/C (second compound 10 µM, first compound 0.1 µM) 4.15%
inactive: viability, T/C (second compound 0.1 µM, first compound 0.000316 µM) 104% | viability, T/C (second compound 0.1 µM, first compound 0.001 µM) 106% | viability, T/C (second compound 0.1 µM, first compound 0.00316 µM) 107% | viability, T/C (second compound 0.1 µM, first compound 0.01 µM) 90.4% | viability, T/C (second compound 0.1 µM, first compound 0.0316 µM) 46.6% | viability, T/C (second compound 0.316 µM, first compound 0.000316 µM) 105% | viability, T/C (second compound 0.316 µM, first compound 0.001 µM) 109% | viability, T/C (second compound 0.316 µM, first compound 0.00316 µM) 103% | viability, T/C (second compound 0.316 µM, first compound 0.01 µM) 92% | viability, T/C (second compound 0.316 µM, first compound 0.0316 µM) 46.2% | viability, T/C (second compound 1 µM, first compound 0.000316 µM) 100% | viability, T/C (second compound 1 µM, first compound 0.001 µM) 102% | viability, T/C (second compound 1 µM, first compound 0.00316 µM) 102% | viability, T/C (second compound 1 µM, first compound 0.01 µM) 91.1% | viability, T/C (second compound 1 µM, first compound 0.0316 µM) 44.2% | viability, T/C (second compound 3.16 µM, first compound 0.000316 µM) 92.3% | viability, T/C (second compound 3.16 µM, first compound 0.001 µM) 98.3% | viability, T/C (second compound 3.16 µM, first compound 0.00316 µM) 104% | viability, T/C (second compound 3.16 µM, first compound 0.01 µM) 83.5% | viability, T/C (second compound 3.16 µM, first compound 0.0316 µM) 30.1% | viability, T/C (second compound 10 µM, first compound 0.000316 µM) 91.4% | viability, T/C (second compound 10 µM, first compound 0.001 µM) 89.2% | viability, T/C (second compound 10 µM, first compound 0.00316 µM) 87.8% | viability, T/C (second compound 10 µM, first compound 0.01 µM) 62.1% | viability, T/C (second compound 10 µM, first compound 0.0316 µM) 21%
28.8 nM: IC50 [1] | IC50 [2]

COc1cc(Nc2ncc3c(n2)-c2ccc(Cl)cc2C(c2c(F)cccc2OC)=NC3)ccc1C(=O)O
16.9 nM and 10 nM: IC50 (curve of compound)
inactive: viability, T/C (compound 0.00316 µM) 95.4% and 84.5% | viability, T/C (compound 0.01 µM) 64.5% and 50% | viability, T/C (compound 0.0316 µM) 32.7% and 30% | viability, T/C (compound 0.1 µM) 22.9% and 20.4% | viability, T/C (compound 0.316 µM) 22.6% and 16.1% | viability, T/C (compound 1 µM) 19.7% and 15.5%

CCc1c2c(nc3ccc(O)cc13)-c1cc3c(c(=O)n1C2)COC(=O)[C@]3(O)CC
< 0.949 nM: IC50 (curve of compound)
active: viability, T/C (compound 0.000949 µM) 4.28% and 3.34% | viability, T/C (compound 0.003 µM) 2.36% and 1.64% | viability, T/C (compound 0.00949 µM) 0.57% and 0.82% | viability, T/C (compound 0.03 µM) 6.31% and 0.48% | viability, T/C (compound 0.0949 µM) 0.34% and 0.47% | viability, T/C (compound 0.3 µM) 0.83% and 0.64%

COc1cc(C2c3cc4c(cc3C(OC3OC5COC(C)OC5C(O)C3O)C3COC(=O)C23)OCO4)cc(OC)c1O (configuration not stated)
> 3000 nM: IC50 (curve of compound)
inactive: viability, T/C (compound 0.00949 µM) 96.8% and 107% | viability, T/C (compound 0.03 µM) 100% and 104% | viability, T/C (compound 0.0949 µM) 96.4% and 104% | viability, T/C (compound 0.3 µM) 95.8% and 105% | viability, T/C (compound 0.949 µM) 96.1% and 98.4% | viability, T/C (compound 3 µM) 93.1% and 90.2%

CC(C)CC(NC(=O)CNC(=O)c1cc(Cl)ccc1Cl)B1OC(=O)CC(CC(=O)O)(C(=O)O)O1 (configuration not stated)
inactive: viability, T/C (compound 0.000316 µM) 98% and 97.7% | viability, T/C (compound 0.001 µM) 105% and 96.7% | viability, T/C (compound 0.00316 µM) 103% and 105% | viability, T/C (compound 0.01 µM) 71.3% and 79.3% | viability, T/C (compound 0.0316 µM) 45.7% and 33.5%
25 nM and 21 nM: IC50 (curve of compound)
active: viability, T/C (compound 0.1 µM) 4.13% and 1.05%

COc1cc(C2c3cc4c(cc3C(OC3OC5COC(C)OC5C(O)C3O)C3COC(=O)C23)OCO4)cc(OC)c1O (configuration not stated) + NC1CC1c1ccc(-c2cccc(O)c2)cc1
inactive: viability, T/C [6] 104% | viability, T/C [7] 112% | viability, T/C [8] 106% | viability, T/C [9] 101% | viability, T/C [10] 100% | viability, T/C [11] 90.4% | viability, T/C [12] 113% | viability, T/C [13] 104% | viability, T/C [14] 106% | viability, T/C [15] 104% | viability, T/C [16] 103% | viability, T/C [17] 92.6% | viability, T/C [18] 102% | viability, T/C [19] 101% | viability, T/C [20] 99.6% | viability, T/C [21] 96.5% | viability, T/C [22] 92.7% | viability, T/C [23] 92.4% | viability, T/C [24] 98.5% | viability, T/C [25] 100% | viability, T/C [26] 95.2% | viability, T/C [27] 95.7% | viability, T/C [28] 94.2% | viability, T/C [29] 84.9% | viability, T/C [30] 84.6% | viability, T/C [31] 81% | viability, T/C [32] 79.3% | viability, T/C [33] 80.2% | viability, T/C [34] 78.6% | viability, T/C [35] 71.1%
> 3000 nM: IC50 [1] | IC50 [2] | IC50 [3] | IC50 [4] | IC50 [5]

CC1(C)CCC(CN2CCN(c3ccc(C(=O)NS(=O)(=O)c4ccc(NCC5CCOCC5)c([N+](=O)[O-])c4)c(Oc4cnc5[nH]ccc5c4)c3)CC2)=C(c2ccc(Cl)cc2)C1
> 10000 nM: IC50 (curve of compound)
inactive: viability, T/C (compound 0.0316 µM) 99.8% and 108% | viability, T/C (compound 0.1 µM) 108% and 106% | viability, T/C (compound 0.316 µM) 101% and 106% | viability, T/C (compound 1 µM) 104% and 105% | viability, T/C (compound 3.16 µM) 101% and 104% | viability, T/C (compound 10 µM) 94.1% and 90%

Nc1ccn(C2OC(CO)C(O)C2(F)F)c(=O)n1 (configuration not stated)
< 0.949 nM: IC50 (curve of compound)
active: viability, T/C (compound 0.000949 µM) 8.59% and 3.05% | viability, T/C (compound 0.003 µM) 3.76% and 3.9% | viability, T/C (compound 0.00949 µM) 3.95% and 4.1% | viability, T/C (compound 0.03 µM) 3.55% and 2.02% | viability, T/C (compound 0.0949 µM) 3.71% and 1.86% | viability, T/C (compound 0.3 µM) 1.91% and 1.26%

COc1cc(C2c3cc4c(cc3C(OC3OC5COC(C)OC5C(O)C3O)C3COC(=O)C23)OCO4)cc(OC)c1O (configuration not stated) + NC1CCC(NC2CC2c2ccccc2)CC1
inactive: viability, T/C [6] 92.9% | viability, T/C [7] 103% | viability, T/C [8] 99.4% | viability, T/C [9] 100% | viability, T/C [10] 98.3% | viability, T/C [11] 91.1% | viability, T/C [12] 101% | viability, T/C [13] 101% | viability, T/C [14] 103% | viability, T/C [15] 100% | viability, T/C [16] 95.6% | viability, T/C [17] 94.4% | viability, T/C [18] 98.8% | viability, T/C [19] 96.5% | viability, T/C [20] 95.8% | viability, T/C [21] 96.6% | viability, T/C [22] 94.7% | viability, T/C [23] 91.3% | viability, T/C [24] 96.9% | viability, T/C [25] 91.8% | viability, T/C [26] 99.2% | viability, T/C [27] 97.3% | viability, T/C [28] 94.5% | viability, T/C [29] 86.1% | viability, T/C [30] 93% | viability, T/C [31] 92% | viability, T/C [32] 86.3% | viability, T/C [33] 90.3% | viability, T/C [34] 81.6% | viability, T/C [35] 82%
> 3000 nM: IC50 [1] | IC50 [2] | IC50 [3] | IC50 [4] | IC50 [5]

— PubChem BioAssay AID1918955 (Molecular Pharmacology Branch, DTP, NCI, 2023)
